Holding throughout (assay type): biochemical
One assay concerns the target Tyk2 (Homo sapiens, UniProt P29597). Kind of assay: Inhibition of JAK kinase activity, EZ Reader microfluidic phosphorylation of peptide substrate: Tyk2. The following applies: Tyk2 kinase 1 nM; highest final concentration 10 μM, 1:3 serial dilution, 8 points, duplicates. An excerpt:
(§1) EZ Reader available from PerkinElmer can be used for detecting the phosphorylation of polypeptide substrates catalyzed by kinases. This device is based on microfluidic separation technology, and can directly detect fluorescence labeled substrates and products. The separation step is achieved in a microfluidic chip by controlling the pressure and electric field intensity. In a kinase experiment, the product conversion rate is generally controlled at 20-30%. This biological assay method is used for identifying the inhibitory effect of the compounds on JAK.
(§2) The compound powder was dissolved in DMSO, sealed and stored in a refrigerator at −20° C. The in-house compound Ref1 was used as a positive control for testing of JAK1, JAK2 and Tyk2, and Ref2 was used as a positive control for testing of JAK3.
(§3) • S2.1. 1M HEPES buffer: 0.5M HEPES free acid and 0.5M HEPES sodium salt are weighed, added into ultrapure water for dissolution, brought to a desired volume, filtered and stored in a refrigerator at 4° C. • S2.2. 40 mM ATP solution: dissolved in a 50 mM HEPES buffer solution, prepared into 40 mM, aliquoted, and cryopreserved in a refrigerator at −20° C. • S2.3. 0.5% Tween 20: 100% Tween 20 was diluted with ultrapure water, and stored in a refrigerator at 4° C. • S2.4. 35% bovine serum albumin: a 35% bovine serum albumin solution is prepared in ultrapure water, aliquoted, and stored in a refrigerator at −20° C. • S2.5. 1M dithiothreitol solution: dithiothreitol is formulated into a 1M solution with ultrapure water, aliquoted, and stored in a refrigerator at −20° C. • S2.6. 0.5 mM Jaktide Peptide substrate solution: it is dissolved in 50 mM HEPES to 0.5 mM, aliquoted, and stored in a refrigerator at −20° C. • S2.7. 0.5 mM IRStide Peptide substrate solution: it is dissolved in 50 mM HEPES to 0.5 mM, aliquoted, and stored in a refrigerator at −20° C. • S2.8. Assay Buffer: 20 mM HEPES buffer, pH 7.4, 10 mM magnesium chloride, 0.01% bovine serum albumin BSA, 0.0005% Tween-20, and a 1 mM dithiothreitol solution. • S2.9. Stop Buffer: 180 mM HEPES buffer, 20 mM ethylenediamine tetraacetic acid (EDTA), and 0.2% Coating Reagent 3. • S2.10. Separation Buffer: 100 mM HEPES buffer, 10 mM EDTA, 0.0005% Tween 20, 0.1% Coating Reagent 3, and 1% dimethyl sulfoxide. 3. Experimental Procedures • S3.1. Preparation of compound plate
(§4) The compound is dissolved in dimethyl sulfoxide to 10 mM, a certain volume is taken and diluted to 0.6 mM, 10 μl of the diluted 0.6 mM solution is taken and added into a 384 microplate or 1:3 serial dilution, with a total of 8 concentration points. • S3.2. Compound layout
(§5) • positive control (HPE1): Ref1, final concentration: 10 μM • positive control (HPE1): Ref2, final concentration: 10 μM • negative control (ZPE): DMSO, with a final concentration of 1.6% • Compound: the highest final concentration at 10 μM, 1:3 serial dilution, with 8 concentration points and in duplicates. 4. Experimental operation steps • S4.1. the experimental plate was added with 250 nl of the compound per well with ECHO, and centrifuged at 1,000 rpm for 1 minute; • S4.2. the precipitate was added with 5 μl of the experimental buffer, and shaken for several seconds to fully dissolve the compound; • S4.3. the solution was added with 5 μl of a 3× substrate solution, as well as 5 μl of a 3× kinase solution, and centrifuged at 800 rpm for 1 minute; • S4.4. The final concentrations of JAK1, JAK2, JAK3 and Tyk2 kinases in the reaction system are 20, 1, 1 and 1 nM, respectively. • S4.5. the reaction system is incubated at room temperature, wherein the incubation time of each kinase is different, and there are differences in incubation time of different batches of kinases. • S4.6. When the reaction reaches 20%-30%, the reaction system is added with 15 μl of the stop buffer to terminate the reaction, and centrifuged at 1,000 rpm for 2 minutes. • S4.7. The precipitate was placed onto a EZ Reader for plate reading. • S4.8. […]

A further assay deals with JAK1 (Homo sapiens, UniProt P23458). Kind of assay: Inhibition of JAK kinase activity, EZ Reader microfluidic phosphorylation of peptide substrate: JAK1. To be noted: JAK1 kinase 20 nM; highest final concentration 10 μM, 1:3 serial dilution, 8 points, duplicates.
Text: as §1, §2, §3, §4, §5

A further assay has as its target JAK2 (Homo sapiens, UniProt O60674). Description: Inhibition of JAK kinase activity, EZ Reader microfluidic phosphorylation of peptide substrate: JAK2. To be noted: JAK2 kinase 1 nM; highest final concentration 10 μM, 1:3 serial dilution, 8 points, duplicates.
Text: as §1, §2, §3, §4, §5

Another assay has as its target T1, JAK3 (Homo sapiens, UniProt P52333).
T1 sequence (P52333 1-1124): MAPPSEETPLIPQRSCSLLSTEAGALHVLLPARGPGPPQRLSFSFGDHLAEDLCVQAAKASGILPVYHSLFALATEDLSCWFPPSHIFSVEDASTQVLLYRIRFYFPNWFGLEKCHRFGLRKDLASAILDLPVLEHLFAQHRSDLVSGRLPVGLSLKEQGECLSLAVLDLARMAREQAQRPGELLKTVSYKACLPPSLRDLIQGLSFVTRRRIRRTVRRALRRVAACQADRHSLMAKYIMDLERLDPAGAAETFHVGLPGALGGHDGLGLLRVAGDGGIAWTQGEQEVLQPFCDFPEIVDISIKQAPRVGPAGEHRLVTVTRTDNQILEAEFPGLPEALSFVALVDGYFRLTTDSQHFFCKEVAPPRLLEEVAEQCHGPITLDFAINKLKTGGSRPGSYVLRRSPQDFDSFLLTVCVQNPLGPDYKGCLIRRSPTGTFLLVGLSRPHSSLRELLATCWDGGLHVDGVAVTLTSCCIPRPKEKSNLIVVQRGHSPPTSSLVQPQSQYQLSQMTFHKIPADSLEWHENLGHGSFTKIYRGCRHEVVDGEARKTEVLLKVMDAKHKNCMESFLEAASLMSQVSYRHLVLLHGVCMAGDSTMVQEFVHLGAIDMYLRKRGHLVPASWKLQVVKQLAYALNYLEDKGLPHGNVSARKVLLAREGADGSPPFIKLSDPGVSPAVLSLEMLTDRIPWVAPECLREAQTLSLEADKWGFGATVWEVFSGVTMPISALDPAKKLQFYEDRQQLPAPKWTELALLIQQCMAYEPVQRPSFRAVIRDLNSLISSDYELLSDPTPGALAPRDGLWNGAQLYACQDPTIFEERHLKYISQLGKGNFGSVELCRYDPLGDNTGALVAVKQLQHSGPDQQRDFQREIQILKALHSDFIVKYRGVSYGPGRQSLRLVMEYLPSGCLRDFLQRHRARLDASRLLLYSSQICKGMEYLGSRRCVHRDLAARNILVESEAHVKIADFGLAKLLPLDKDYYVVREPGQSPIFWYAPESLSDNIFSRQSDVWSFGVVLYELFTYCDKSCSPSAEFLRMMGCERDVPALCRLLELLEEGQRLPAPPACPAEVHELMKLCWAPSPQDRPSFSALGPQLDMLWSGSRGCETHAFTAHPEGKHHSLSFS
Description: Inhibition of JAK kinase activity, EZ Reader microfluidic phosphorylation of peptide substrate: JAK3. The following applies: JAK3 kinase 1 nM; highest final concentration 10 μM, 1:3 serial dilution, 8 points, duplicates.
Text: as §1, §2, §3, §4, §5

The structures appear in SMILES notation. Bounds are passed on as bounds.

Sequence of JAK1 (P23458 whole entry): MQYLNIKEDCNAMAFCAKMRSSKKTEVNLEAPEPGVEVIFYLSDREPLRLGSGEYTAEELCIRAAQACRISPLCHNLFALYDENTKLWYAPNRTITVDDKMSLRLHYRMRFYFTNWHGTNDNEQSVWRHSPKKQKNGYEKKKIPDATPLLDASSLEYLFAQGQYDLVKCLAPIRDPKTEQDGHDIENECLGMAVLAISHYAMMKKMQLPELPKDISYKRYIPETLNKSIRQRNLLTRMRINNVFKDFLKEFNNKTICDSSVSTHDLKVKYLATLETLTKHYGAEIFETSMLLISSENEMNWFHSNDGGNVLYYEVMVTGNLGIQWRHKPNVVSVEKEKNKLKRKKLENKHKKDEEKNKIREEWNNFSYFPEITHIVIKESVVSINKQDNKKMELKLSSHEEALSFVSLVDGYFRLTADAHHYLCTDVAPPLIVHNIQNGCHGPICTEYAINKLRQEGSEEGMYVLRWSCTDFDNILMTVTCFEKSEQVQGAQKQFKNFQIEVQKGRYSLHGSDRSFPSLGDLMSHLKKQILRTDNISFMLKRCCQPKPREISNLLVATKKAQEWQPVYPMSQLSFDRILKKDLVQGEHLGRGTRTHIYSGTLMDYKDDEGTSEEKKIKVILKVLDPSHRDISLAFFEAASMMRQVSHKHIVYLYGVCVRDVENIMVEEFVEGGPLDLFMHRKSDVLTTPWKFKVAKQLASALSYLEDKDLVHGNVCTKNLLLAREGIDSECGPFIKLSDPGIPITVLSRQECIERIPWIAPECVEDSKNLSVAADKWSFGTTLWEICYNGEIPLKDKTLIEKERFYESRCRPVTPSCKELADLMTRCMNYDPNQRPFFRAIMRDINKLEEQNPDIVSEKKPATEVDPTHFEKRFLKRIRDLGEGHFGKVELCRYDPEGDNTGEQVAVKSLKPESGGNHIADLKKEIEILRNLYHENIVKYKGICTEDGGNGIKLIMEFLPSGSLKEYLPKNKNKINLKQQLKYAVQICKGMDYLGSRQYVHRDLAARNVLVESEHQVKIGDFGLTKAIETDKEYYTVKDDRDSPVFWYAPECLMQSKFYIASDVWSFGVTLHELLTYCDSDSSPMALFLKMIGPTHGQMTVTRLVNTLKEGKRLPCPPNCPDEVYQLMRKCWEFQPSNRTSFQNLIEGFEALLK
Sequence of Tyk2 (P29597 whole entry): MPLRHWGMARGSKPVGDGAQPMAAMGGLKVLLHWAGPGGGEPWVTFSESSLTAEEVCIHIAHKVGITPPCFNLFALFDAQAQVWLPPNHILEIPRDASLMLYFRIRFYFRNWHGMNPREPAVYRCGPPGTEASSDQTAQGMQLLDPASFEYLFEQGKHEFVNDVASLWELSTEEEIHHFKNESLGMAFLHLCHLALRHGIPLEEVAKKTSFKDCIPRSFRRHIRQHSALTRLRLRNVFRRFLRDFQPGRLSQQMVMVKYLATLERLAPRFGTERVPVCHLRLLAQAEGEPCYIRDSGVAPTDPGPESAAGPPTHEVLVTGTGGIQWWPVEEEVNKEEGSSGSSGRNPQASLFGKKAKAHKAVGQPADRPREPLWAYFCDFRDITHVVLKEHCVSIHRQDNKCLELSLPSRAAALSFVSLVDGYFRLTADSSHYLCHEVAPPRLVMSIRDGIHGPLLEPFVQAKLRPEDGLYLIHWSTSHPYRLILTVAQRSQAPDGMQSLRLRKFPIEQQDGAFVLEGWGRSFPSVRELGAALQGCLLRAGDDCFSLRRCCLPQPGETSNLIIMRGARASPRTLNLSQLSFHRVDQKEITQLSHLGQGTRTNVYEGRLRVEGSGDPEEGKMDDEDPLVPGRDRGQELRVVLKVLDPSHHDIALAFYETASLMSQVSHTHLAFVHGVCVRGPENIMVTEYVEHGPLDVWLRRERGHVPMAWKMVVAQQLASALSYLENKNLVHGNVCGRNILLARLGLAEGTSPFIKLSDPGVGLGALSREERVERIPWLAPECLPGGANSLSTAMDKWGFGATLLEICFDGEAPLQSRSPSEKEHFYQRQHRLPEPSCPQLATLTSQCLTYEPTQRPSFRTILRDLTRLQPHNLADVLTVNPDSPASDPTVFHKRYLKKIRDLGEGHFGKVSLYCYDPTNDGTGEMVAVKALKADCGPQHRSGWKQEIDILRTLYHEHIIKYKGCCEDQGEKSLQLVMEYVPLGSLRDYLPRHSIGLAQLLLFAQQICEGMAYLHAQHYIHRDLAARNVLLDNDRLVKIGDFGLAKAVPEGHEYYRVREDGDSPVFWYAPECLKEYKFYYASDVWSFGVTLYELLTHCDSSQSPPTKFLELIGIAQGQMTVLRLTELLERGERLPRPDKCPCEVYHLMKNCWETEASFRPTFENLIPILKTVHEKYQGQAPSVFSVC
Sequence of JAK2 (O60674 whole entry): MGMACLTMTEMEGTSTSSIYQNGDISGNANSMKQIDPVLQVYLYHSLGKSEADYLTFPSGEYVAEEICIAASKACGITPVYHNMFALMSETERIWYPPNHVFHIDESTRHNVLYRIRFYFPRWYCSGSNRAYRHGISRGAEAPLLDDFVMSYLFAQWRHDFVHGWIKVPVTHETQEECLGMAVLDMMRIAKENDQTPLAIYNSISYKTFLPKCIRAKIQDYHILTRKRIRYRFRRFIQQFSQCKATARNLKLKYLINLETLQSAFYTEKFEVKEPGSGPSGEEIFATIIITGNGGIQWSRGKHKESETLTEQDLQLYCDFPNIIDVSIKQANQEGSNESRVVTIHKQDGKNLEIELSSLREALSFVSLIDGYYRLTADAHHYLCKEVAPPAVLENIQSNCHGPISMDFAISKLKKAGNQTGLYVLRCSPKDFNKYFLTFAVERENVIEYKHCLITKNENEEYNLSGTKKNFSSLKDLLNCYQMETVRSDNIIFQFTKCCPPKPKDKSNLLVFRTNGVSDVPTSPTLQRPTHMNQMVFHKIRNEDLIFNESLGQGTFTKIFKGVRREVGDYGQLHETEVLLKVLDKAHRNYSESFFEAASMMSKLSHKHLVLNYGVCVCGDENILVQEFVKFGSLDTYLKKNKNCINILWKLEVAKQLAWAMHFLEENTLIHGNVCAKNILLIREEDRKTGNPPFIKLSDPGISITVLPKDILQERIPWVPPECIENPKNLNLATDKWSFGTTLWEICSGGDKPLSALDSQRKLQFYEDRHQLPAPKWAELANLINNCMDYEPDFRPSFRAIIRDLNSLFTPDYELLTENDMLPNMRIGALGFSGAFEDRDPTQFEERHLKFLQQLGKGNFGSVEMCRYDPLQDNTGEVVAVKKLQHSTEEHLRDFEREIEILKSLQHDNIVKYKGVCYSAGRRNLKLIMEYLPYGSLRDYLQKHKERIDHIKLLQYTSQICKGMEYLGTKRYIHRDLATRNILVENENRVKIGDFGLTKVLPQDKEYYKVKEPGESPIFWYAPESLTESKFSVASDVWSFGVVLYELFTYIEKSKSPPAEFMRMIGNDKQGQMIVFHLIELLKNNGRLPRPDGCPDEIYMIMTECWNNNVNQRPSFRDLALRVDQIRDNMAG

In general, IC50 refers to the point on the concentration scale where inhibition reaches its midpoint. Lower therefore signals inhibition by little substance. On to `Cn1cc(Nc2nccc(-c3ccn(C4(CC#N)CN(C(=O)C5CC5(F)F)C4)c3)n2)cn1` (centres unmarked) [TDM-180776, 2-(1-(2,2-difluorocyclo-1-carbonyl)-3-(3-(2-((1-methyl-1H-pyrazol-4-yl)amino)pyrimidin-4-yl)-1H-pyrrol-1-yl)azetidin-3-yl)acetonitrile], for which the IC50 is less than 0.1 µM at Tyk2, less than 0.1 µM against JAK1, less than 0.1 µM at JAK2 and 1 to 10 µM against JAK3.
For the compound `Cn1cc(Nc2nccc(-c3cnn(C4CCN(C(=O)CC(F)(F)F)C4)c3)n2)cn1` (centres unmarked) [TDM-180651, 3,3,3-trifluoro-1-(3-(4-(2-((1-methyl-1H-pyrazol-4-yl)amino)pyrimidin-4-yl)-1H-pyrazol-1-yl)pyrrolidine-yl)propan-1-one], the IC50 was not below 10 µM against Tyk2, not below 10 µM at JAK1, 1 to 10 µM on JAK2 and not below 10 µM against JAK3.
In the case of `CCC(=O)N1CCC(n2cc(-c3ccnc(Nc4cnn(C)c4)n3)cn2)CC1` [TDM-180676, 1-(4-(4-(2-((1-methyl-1H-pyrazol-4-yl)amino)pyrimidin-4-yl)-1H-pyrazol-1-yl)piperidin-1-yl)propan-1-one], the IC50 against Tyk2, against JAK1, against JAK2 and on JAK3 was not below 10 µM in each case.
For `Cn1cc(Nc2nccc(-c3cnn(C4CCN(C(=O)C5CC5(F)F)CC4)c3)n2)cn1` (centres unmarked) [TDM-180679, (2,2-difluorocyclopropyl)(4-(4-(2-((1-methyl-1H-pyrazol-4-yl)amino)pyrimidin-4-yl)-1H-pyrazol-1-yl)piperidin-1-yl)ketone], the IC50 against Tyk2, on JAK1, against JAK2 and against JAK3 was not below 10 µM each time.
As for `Cn1cc(Nc2nccc(-c3cnn(C4CCN(C(=O)C5CC5)CC4)c3)n2)cn1` [TDM-180673, cyclopropyl(4-(4-(2-((1-methyl-1H-pyrazol-4-yl)amino)pyrimidin-4-yl)-1H-pyrazol-1-yl)piperidin-1-yl)ketone], the IC50 against Tyk2, against JAK1, against JAK2 and at JAK3 was not below 10 µM in each case.
`CCS(=O)(=O)N1CC(n2cc(-c3ccnc(Nc4cnn(C)c4)n3)cn2)C1` [TDM-180665, 4-(1-(1-(ethylsulfonyl)azetidin-3-yl)-1H-pyrazol-4-yl)-N-(1-methyl-1H-pyrazol-4-yl)pyrimidin-2-amine]: the IC50 is 1 to 10 µM against Tyk2, 1 to 10 µM against JAK1, 1 to 10 µM on JAK2 and not below 10 µM against JAK3.
As for `Cn1cc(Nc2nccc(-c3cnn(C4(CC#N)CN(S(=O)(=O)CCCCl)C4)c3)n2)cn1` [TDM-180925, 2-(1-((3-chloropropyl)sulfonyl)-3-(4-(2-((1-methyl-1H-pyrazol-4-yl)amino)pyrimidin-4-yl)-1H-pyrazol-1-yl)azetidin-3-yl)acetonitrile], the IC50 on Tyk2 and on JAK1 was 0.1 to 1 µM throughout.
For the compound `COC(=O)CCS(=O)(=O)N1CC(CC#N)(n2cc(-c3ccnc(Nc4cnn(C)c4)n3)cn2)C1` [TDM-180927, Ethyl methyl-3-((3-(cyanomethyl)-3-(4-(2-((1-methyl-1H-pyrazol-4-yl)amino)pyrimidin-4-yl)-1H-pyrazol-1-yl)azetidineazetidin-1-yl)sulfonyl)propionate], the IC50 on Tyk2 and on JAK1 was 0.1 to 1 µM in each case.
Turning to `CCS(=O)(=O)N1CC(CC#N)(n2ccc(-c3ccnc(Nc4cnn(C)c4)n3)n2)C1` [TDM-180922, 2-(1-(ethylsulfonyl)-3-(3-(2-((1-methyl-1H-pyrazol-4-yl)amino)pyrimidin-4-yl)-1H-pyrazol-1-yl)azetidinpyridin-3-yl)acetonitrile], the IC50 at Tyk2 and against JAK1 was 0.1 to 1 µM in each case.
Take `CCCS(=O)(=O)N1CC(CC#N)(n2ccc(-c3ccnc(Nc4cnn(C)c4)n3)n2)C1` [TDM-180916, 2-(3-(3-(2-((1-methyl-1H-pyrazol-4-yl)amino)pyrimidin-4-yl)-1H-pyrazol-1-yl)-1-(propylsulfonyl)azacyclobutanpyridin-3-yl)acetonitrile]: the results for the IC50 against Tyk2 and on JAK1 were 1 to 10 µM and 0.1 to 1 µM, respectively.
On the same counts, the results for `Cn1cc(Nc2nccc(-c3ccc(C4(CC#N)CN(C(=O)CC(F)(F)F)C4)cc3)n2)cn1` [TDM-180873, 2-(3-(4-(2-((1-methyl-1H-pyrazol-4-yl)amino)pyrimidin-4-yl)phenyl)-1-(3,3,3-trifluoropropanol)azetidin-3-yl)acetonitrile] are 0.1 to 1 µM and 0.1 to 1 µM.
As to `COCC(=O)N1CC(CC#N)(n2cc(-c3ccnc(Nc4cnn(C)c4)n3)cn2)C1` [TDM-180765, 2-(1-(2-methoxyacetyl)-3-(4-(2-((1-methyl-1H-pyrazol-4-yl)amino)pyrimidin-4-yl)-1H-pyrazol-1-yl)azetidin-3-yl)acetonitrile], the IC50 against Tyk2 and at JAK1 was 1 to 10 µM each time.
On to `Cn1cc(Nc2nccc(-c3ccn(C4(CC#N)CN(C(=O)[C@H]5CC5(F)F)C4)c3)n2)cn1` [TDM-180938, (R)-2-(1-(2,2-difluorocyclopropane-1-carbonyl)-3-(3-(2-((1-methyl-1H-pyrazol-4-yl)amino)pyrimidin-4-yl)-1H-pyrrol-1-yl)azetidin-3-yl)acetonitrile], for which the IC50 on Tyk2 and on JAK1 was 0.1 to 1 µM each time.
